From patent US11998028B2, “Polypeptide for hydrolytic cleavage of zearalenone and/or zearalenone derivatives, isolated polynucleotide thereof as well as a polypeptide containing an additive, use of same as well as a process” (priority 2013, dated 2024)

What was measured:
[1] = tested on: polypeptide (hydrolase / zonase) with sequence ID no. 1, C-terminal 6×His tag; test: Enzyme kinetics of ZEN hydrolysis to HZEN, photometric at 315 nm; type: biochemical; settings: ZEN substrate, 50 mM Tris-HCl pH 8.2, 32° C.
Description: The soluble cell lysate in the case of E. coli and/or the culture supernatant in the case of P. pastoris was/were used for determination of the catalytic properties of the polypeptides. To determine the KM value, vmax, kcat and the specific activity, the polypeptides were selectively enriched chromatographically by standard methods over nickel-Sepharose columns. The determination of the protein concentration was performed by means of standard methods, either being calculated by the BCA method (Pierce BCA Protein Assay KitProd #23225) or preferably photometrically with the specific extinction coefficients for the respective proteins that are available online with the ProtParam program at http://web.expasy.org/protparam (Gasteiger E. et al.; Protein Identification and Analysis Tools on the ExPASy Server, in John M. Walker (ed): The Proteomics Protocols Handbook, Humana Press, 2005, pp. 571-607).
The preparation, enrichment and purification of the polypeptides and/or variants thereof were performed as described in example 1. Degradation of ZEN to HZEN was measured on the basis of the reduction in absorption at the wavelength of 315 nm. […] The extinction coefficients have a strong dependence on pH and therefore the activity must always be measured precisely at the same pH and preferably also in the same matrix. The measurements were performed in a 50 mM Tris-HCl pH=8.2 buffer solution in quartz cuvettes in a wavelength range of 200 to 2500 nm in a UV-VIS photometer (Hitachi U-2001) at 32° C.
A 2.08 mM ZEN solution (40 vol % ACN+60 vol % H2O) was used as the ZEN substrate stock solution. To prepare this solution, ZEN in crystalline form (Biopure Standard from Romer Labs, article no. 001109, purity at least 98%) was weighed and dissolved accordingly. The ZEN substrate dilutions (0.79 μM, 1.57 μM, 2.36 μM, 3.14 μM, 4.71 μM, 6.28 μM, 7.85 μM, 9.42 μM, 10.99 μM, 12.56 μM, 14.13 μM, 15.71 μM, 17.28 μM and 18.85 μM) were prepared with 50 mM Tris-HCl pH=8.2. The polypeptide solutions were diluted to a final concentration of approximately 70 ng/mL using 50 mM Tris-HCl buffer pH=8.2. The ZEN substrate dilutions were preheated to 32° C. in a water bath.
100 μL portions of the respective ZEN substrate dilution were mixed with 0.2 μL polypeptide solution, and the absorption was measured for 5 minutes, whereupon each combination of polypeptide solution and ZEN substrate dilution was measured at least twice.
Taking into account the extinction coefficients of ZEN and HZEN, the reaction rate was calculated for each substance concentration on the basis of the slope in the absorption over time.
The designations “KM value” or “Michaelis-Menten constant” relate to a parameter for describing the enzymatic affinity of the units μM or mM, which are calculated with the help of the linear Hanes plots according to H. Bisswang (2002, Enzyme Kinetics, ISBN 3-527-30343-X, page 19), wherein the function “enzyme kinetics, single substrate” in the SigmaPlot 12.0 program is preferably used for this purpose. The designations “catalytic constant of the enzyme reaction” or “kcat value” relate to a parameter for describing the conversion rate of a polypeptide and/or enzyme, which is given in s^−1 and is preferably calculated with the help of the “enzyme kinetic, single substrate” function of the SigmaPlot 12.0 program. The “maximum enzyme rate” or “vmax value” is given in units of μM/s or mM/s and is determined with the help of the linear Hanes plot by analogy with the KM value, wherein the function “enzyme kinetic, single substrate” of the SigmaPlot 12.0 program is preferably used for this.
The raw data for determination of the enzyme parameters KM, vmax, kcat and the specific activity are given below for the polypeptide having the sequence ID no. 1.

estrogen receptor = settings: cited from earlier work
[2] = relatively low acute toxicity; cited from earlier work
[3] = tested on: mammalian animals, in particular pigs; settings: cited from earlier work
pigs = settings: cited from earlier work
cattle = settings: cited from earlier work
[4] = cited from earlier work
estrogenic effect = settings: cited from earlier work

Question: With `C[C@H]1CCCC(=O)CCC/C=C/c2cc(O)cc(O)c2C(=O)O1` [ZEN, (2E,11S)-15,17-dihydroxy-11-methyl-12-oxabicyclo[12.4.0]octadeca-1(18),2,14,16-tetraene-7,13-dione] as the compound, how does the Km ([1]; Average) read?
Answer: 0.204 µM

Question: And the Vmax ([1]; Average)?
Answer: 0.009343 µM/s

Question: And the kcat ([1]; Average)?
Answer: 5.12 s⁻¹

Question: And the Km ([1]; Measurement 1)?
Answer: 0.217 µM

Question: What about the Vmax ([1]; Measurement 1) of the same compound?
Answer: 0.00993 µM/s

Question: And the kcat ([1]; Measurement 1)?
Answer: 5.44 s⁻¹

Question: What about the Km ([1]; Measurement 2) of the same compound?
Answer: 0.19 µM

Question: And the Vmax ([1]; Measurement 2)?
Answer: 0.008756 µM/s

Question: What about the kcat ([1]; Measurement 2) of the same compound?
Answer: 4.79 s⁻¹

Question: What about the “binding to the estrogen receptor” value (estrogen receptor) of the same compound?
Answer: binds to the estrogen receptor

Question: What about the “oral LD50” value [2] of the same compound?
Answer: up to 20,000 mg/kg body weight

Question: What about the “ZEN concentration in feed resulting in developmental disorders” value [3] of the same compound?
Answer: more than 0.5 ppm

Question: And the “ZEN concentration that can result in hyperestrogenicity” value (pigs)?
Answer: more than 1.5 ppm

Question: And the “ZEN concentration blamed for spontaneous abortions” value (cattle)?
Answer: 12 ppm

Question: And the “absorption through the mucous membranes” value ([4]; in particular gastric mucosa and oral mucosa)?
Answer: absorbed rapidly

Question: What about the “time after oral administration at which ZEN can be detected in blood” value ([4]; oral administration) of the same compound?
Answer: 30 min

Question: With `C[C@H]1CCC[C@H](O)CCC/C=C/c2cc(O)cc(O)c2C(=O)O1` [α-ZEL, (2E,7R,11S)-7,15,17-trihydroxy-11-methyl-12-oxabicyclo[12.4.0]-octadeca-1(18),2,14,16-tetraen-13-one] as the compound, how does the “estrogenic effect compared with ZEN” value (estrogenic effect) read?
Answer: much stronger estrogenic effect than ZEN

Question: For `C[C@H]1CCCC(=O)CCCCCc2cc(O)cc(O)c2C(=O)O1` [ZAN, (11S)-15,17-dihydroxy-11-methyl-12-oxabicyclo-[12.4.0]octadeca-1(18),14,16-triene-7,13-dione], which “estrogenic effect compared with ZEN” value (estrogenic effect) is on record?
Answer: much stronger estrogenic effect than ZEN

Question: For `C[C@H]1CCC[C@H](O)CCCCCc2cc(O)cc(O)c2C(=O)O1` [α-ZAL, (7R,11S)-7,15,17-trihydroxy-11-methyl-12-oxabicyclo[12.4.0]octa-deca-1(18),14,16-trien-13-one], which “estrogenic effect compared with ZEN” value (estrogenic effect) is on record?
Answer: much stronger estrogenic effect than ZEN
